Experimental findings from patent publication US20240148821A1, “PHARMACEUTICAL USE OF CYCLIC PEPTIDE COMPOUND” (CHUGAI SEIYAKU KABUSHIKI KAISHA, priority 2021, published 2024) are described below.

Numbered stars: 1 amine (or outer) side, 2 acyl side, 3 side chain; on linkers, the order of the positions; unused ones are H or OH. Bridge positions count the residues as written; N and C are the ends. Square brackets hold non-standard residues; d marks the D form. Peptide text beside a SMILES is read from it. * marks the point of attachment. hPhe(3,5-F2-4-CF3) = N[C@@H](CCc1cc(F)c(C(F)(F)F)c(F)c1)C(=O)O; hPhe(3-Cl-4-CF3) = N[C@@H](CCc1ccc(C(F)(F)F)c(Cl)c1)C(=O)O; hPhe(3-F,4-CF3) = N[C@@H](CCc1ccc(C(F)(F)F)c(F)c1)C(=O)O; NEtPhe(4-CF3) = CCN[C@@H](Cc1ccc(C(F)(F)F)cc1)C(=O)O; NEtAsp = CCN([C@@H](CC(=O)[*:3])C(=O)[*:2])[*:1]; 3Oxa8azabicyclo(3.2.1)octane = C1CC2COCC1N2*; NMePhe(4-F) = CN[C@@H](Cc1ccc(F)cc1)C(=O)O; NMedβ3hAla = C[C@H](CC(=O)[*:2])N(C)[*:1]; NMeGly(cPent) = CN[C@H](C(=O)O)C1CCCC1; Pro(4,4-F2) = O=C(O)[C@@H]1CC(F)(F)CN1; NMeGly(cBu) = CN[C@H](C(=O)O)C1CCC1; NMeCha = CN[C@@H](CC1CCCCC1)C(=O)O; NMeI = CC[C@H](C)[C@H](NC)C(=O)O; NMeD = CN[C@@H](CC(=O)O)C(=O)O; NMeL = CN[C@@H](CC(C)C)C(=O)O; NMeV = CN[C@H](C(=O)O)C(C)C; d(β3hA) = C[C@@H](N)CC(=O)O; NMeS = CN[C@@H](CO)C(=O)O; NMeA = CN[C@@H](C)C(=O)O; Piperidide = C1CCN(*)CC1; dNMeA = CN[C@H](C)C(=O)O; Ac5c = NC1(C(=O)O)CCCC1; Aze = O=C(O)[C@@H]1CCN1; Ac4c = NC1(C(=O)O)CCC1; Sar = CNCC(=O)O; Propyl = CCC*

The target of the experiment is protein-protein interaction between Kras and SOS1 (biotin-tagged human Kras loaded with GDP, His-tagged human SOS1) (Homo sapiens (Human), UniProt P01116, G12D). The experiment is described as follows: Protein-protein interaction inhibition between Kras and SOS1 (KrasG12D-SOS PPI) using AlphaScreen.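 Note: kras produced in E. coli, Ni-coupled donor beads and streptavidin acceptor beads, excitation 680 nm with emission detected at 520–620 nm via singlet oxygen transfer.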 The class given is biochemical. As to conditions: AlphaScreen; biotin-tagged human Kras loaded with GDP, His-tagged human SOS1; read-out: KRAS G12D-SOS PPI IC50. Background: Alpha assays give light when donor and acceptor beads are brought close together.
Usually IC50 stands for the point on the concentration scale where inhibition reaches its midpoint. As to `CCCOC[C@H]1C(=O)N(C)CC(=O)N[C@@H](CCc2ccc(C(F)(F)F)c(F)c2)C(=O)N2CCC[C@H]2C(=O)NC2(CCCC2)C(=O)N(C)[C@@H](C2CCCC2)C(=O)N(C)[C@H](C(=O)N2CCCCC2)CC(=O)N(C)[C@@H](CC(C)C)C(=O)N[C@@H]([C@@H](C)CC)C(=O)N(C)[C@@H](C)C(=O)N2CC[C@H]2C(=O)N1C` [Compound 1029] ([NMeL]I[NMeA][Aze][NMeS](Propyl)[Sar][hPhe(3-F,4-CF3)]P[Ac5c][NMeGly(cPent)][NMeD]-Piperidide; lactam N-11), the IC50 was 1.4 nM.

As for `CCCOC[C@H]1C(=O)N(C)CC(=O)N[C@@H](CCc2ccc(C(F)(F)F)c(F)c2)C(=O)N2CCC[C@H]2C(=O)NC2(CCCC2)C(=O)N(C)[C@@H](C2CCCC2)C(=O)N(C)[C@H](C(=O)N2C3CCC2COC3)CC(=O)N(C)[C@@H](CC(C)C)C(=O)N[C@@H]([C@@H](C)CC)C(=O)N(C)[C@@H](C)C(=O)N2CC[C@H]2C(=O)N1C` [Compound 1030] ([NMeL]I[NMeA][Aze][NMeS](Propyl)[Sar][hPhe(3-F,4-CF3)]P[Ac5c][NMeGly(cPent)][NMeD]-{3Oxa8azabicyclo(3.2.1)octane}; lactam N-11), the IC50 worked out at 1.7 nM.

For the molecule `CC[C@H](C)[C@@H]1NC(=O)[C@H](C2CCC2)N(C)C(=O)C[C@@H](C(=O)N2CCCCC2)N(C)C(=O)[C@H](C(C)C)N(C)C(=O)C2(CCCC2)NC(=O)[C@@H]2CCCN2C(=O)[C@H](CCc2ccc(C(F)(F)F)c(Cl)c2)NC(=O)CN(C)C(=O)[C@H](CC2CCCCC2)N(C)C(=O)[C@@H]2CCN2C(=O)[C@H](C)N(C)C1=O` [Compound 1036] ([NMeGly(cBu)]I[NMeA][Aze][NMeCha][Sar][hPhe(3-Cl-4-CF3)]P[Ac5c][NMeV][NMeD]-Piperidide; lactam N-11), the IC50 is 7.7 nM.

Consider `CC[C@H](C)[C@@H]1NC(=O)[C@H](CC(C)C)N(C)C(=O)C[C@@H](C(=O)N2CCCCC2)N(C)C(=O)[C@H](C(C)C)N(C)C(=O)C2(CCCC2)NC(=O)[C@@H]2CCCN2C(=O)[C@H](CCc2ccc(C(F)(F)F)c(F)c2)NC(=O)CN(C)C(=O)[C@H](CC2CCCCC2)N(C)C(=O)[C@@H]2CCN2C(=O)[C@H](C)N(C)C1=O` [Compound 1040] ([NMeL]I[NMeA][Aze][NMeCha][Sar][hPhe(3-F,4-CF3)]P[Ac5c][NMeV][NMeD]-Piperidide; lactam N-11), for which the IC50 is 14 nM.

On to `CC[C@H](C)[C@@H]1NC(=O)[C@H](CC(C)C)N(C)C(=O)C[C@@H](C)N(C)C(=O)[C@H](C2CCCC2)N(C)C(=O)C2(CCCC2)NC(=O)[C@@H]2CCCN2C(=O)[C@H](CCc2ccc(C(F)(F)F)c(Cl)c2)NC(=O)CN(C)C(=O)[C@H](C2CCCC2)N(C)C(=O)[C@@H]2CCN2C(=O)[C@H](C)N(C)C1=O` [Compound 1046] (cyclo([Ac5c][NMeGly(cPent)][NMedβ3hAla][NMeL]I[NMeA][Aze][NMeGly(cPent)][Sar][hPhe(3-Cl-4-CF3)]P)), for which the IC50 came out at 4.6 nM.

With `CC[C@H](C)[C@@H]1NC(=O)[C@H](CC(C)C)N(C)C(=O)C[C@@H](C(=O)N2CCCCC2)N(CC)C(=O)[C@H](C2CCCC2)N(C)C(=O)C2(CCCC2)NC(=O)[C@@H]2CCCN2C(=O)[C@H](CCc2ccc(C(F)(F)F)c(Cl)c2)NC(=O)CN(C)C(=O)[C@H](C2CCC2)N(C)C(=O)[C@@H]2CCN2C(=O)[C@H](C)N(C)C1=O` [Compound 1047] ([NMeL]I[NMeA][Aze][NMeGly(cBu)][Sar][hPhe(3-Cl-4-CF3)]P[Ac5c][NMeGly(cPent)][NEtAsp]-Piperidide; lactam N-11), the IC50 turned out to be 6.3 nM.

Consider `CC[C@H](C)[C@@H]1NC(=O)[C@H](CC(C)C)N(C)C(=O)C[C@@H](C)N(C)C(=O)[C@H](C2CCCC2)N(C)C(=O)C2(CCC2)NC(=O)[C@@H]2CC(F)(F)CN2C(=O)[C@H](CCc2cc(F)c(C(F)(F)F)c(F)c2)NC(=O)CN(C)C(=O)[C@H](Cc2ccc(C(F)(F)F)cc2)N(CC)C(=O)[C@@H]2CCN2C(=O)[C@H](C)N(C)C1=O` [Compound 1049] (cyclo([Ac4c][NMeGly(cPent)][NMedβ3hAla][NMeL]I[NMeA][Aze][NEtPhe(4-CF3)][Sar][hPhe(3,5-F2-4-CF3)][Pro(4,4-F2)])), for which the IC50 was 3.7 nM.

As to `CC[C@H](C)[C@@H]1NC(=O)[C@H](CC(C)C)N(C)C(=O)C[C@@H](C(=O)N2CCCCC2)N(C)C(=O)[C@H]([C@@H](C)CC)N(C)C(=O)C2(CCCC2)NC(=O)[C@@H]2CCCN2C(=O)[C@H](CCc2ccc(C(F)(F)F)c(Cl)c2)NC(=O)CN(C)C(=O)[C@H](Cc2ccc(F)cc2)N(C)C(=O)[C@@H]2CCN2C(=O)[C@H](C)N(C)C1=O` [Compound 1060] ([NMeL]I[NMeA][Aze][NMePhe(4-F)][Sar][hPhe(3-Cl-4-CF3)]P[Ac5c][NMeI][NMeD]-Piperidide; lactam N-11), the IC50 was 0.65 nM.

On to `CC[C@H](C)[C@@H]1NC(=O)[C@H](C)N(C)C(=O)C[C@@H](C)NC(=O)[C@H](C2CCCC2)N(C)C(=O)C2(CCCC2)NC(=O)[C@@H]2CCCN2C(=O)[C@H](CCc2ccc(C(F)(F)F)c(Cl)c2)NC(=O)[C@@H](C)N(C)C(=O)[C@H](C(C)C)N(C)C(=O)[C@@H]2CCN2C(=O)[C@H](C)N(C)C1=O` [Compound 1066] (cyclo([Ac5c][NMeGly(cPent)][d(β3hA)][NMeA]I[NMeA][Aze][NMeV][dNMeA][hPhe(3-Cl-4-CF3)]P)), for which the IC50 was found to be 24 nM.
